Measurements published in patent US20050107447A1, “Novel lysophosphatidic acid receptor agonists and antagonists” (priority 2003, published 2005).
Several values for one entry are separate records, joined by “and”; a condition that tells them apart may be missing. Identical values can stand only once. Entries after “also recorded” stand apart in the source; their conditions may differ.

Experiments:
[1] = molecular target: T1, LPA1 (Mus musculus, UniProt P61793); assay: GTP[γ35S] binding, LPA1 transfected HEK293T (or RH7777) cell membranes; assay type: biochemical; set-up: expressed in transfected cells; host or cells: HEK293T (transient, with G protein plasmids); some results from RH7777 rat hepatoma membranes transfected with LPA1 DNA only; conditions: for EC50: agonist, GTP[γ35S] binding; for Potency at LPA1 relative to LPA: vs 1-oleoyl LPA
Protocol: (§1) The appropriate receptor plasmid DNA (encoding mouse LPA1, human LPA2 or human LPA3) was mixed with equal amounts of expression plasmids (pcDNA3) encoding a mutated (C351F) rat Gi2a, cow β1, and γ2 proteins and these DNAs were used to transfect monolayers of HEK293T cells (where ‘T’ indicates expression of the SV-40 virus large T antigen) using the calcium phosphate precipitate method. After about 60 hours, cells were harvested, membranes were prepared, aliquoted and stored at −70° C. until use.
(§2) The GTP[35 γS] assay was performed as described by us previously. Membranes containing 5 ug of protein were incubated in 0.1 ml GTP-binding buffer (in mM: HEPES 50, NaCl 100, MgCl2 10, pH7.5) containing […], […], 0.1 nM GTP[35 γS] (1200 Ci/mmol), and indicated lipid(s) for 30 minutes at 30° C. Samples were analyzed for membrane-bound radionuclide using a Brandel Cell Harvester (Gaithersburg, Md.).
(§3) The X-intercept of the linear transformation is equal to the inverse log of the κ1.
(§4) Membranes prepared from these cells are used to measure GTPγ[^35S] binding as a function of test compound concentration. The resulting dose-response curves provide relative potency (EC50) and efficacy, (Emax) for the test compounds.

[2] = molecular target: T2, LPA3 (Homo sapiens, UniProt Q9UBY5); assay: GTP[γ35S] binding, LPA3 transfected HEK293T cell membranes; assay type: biochemical; set-up: expressed in transfected cells; host or cells: HEK293T (transient, calcium phosphate); conditions: for EC50: agonist, GTP[γ35S] binding
T2 sequence (Q9UBY5 1-353): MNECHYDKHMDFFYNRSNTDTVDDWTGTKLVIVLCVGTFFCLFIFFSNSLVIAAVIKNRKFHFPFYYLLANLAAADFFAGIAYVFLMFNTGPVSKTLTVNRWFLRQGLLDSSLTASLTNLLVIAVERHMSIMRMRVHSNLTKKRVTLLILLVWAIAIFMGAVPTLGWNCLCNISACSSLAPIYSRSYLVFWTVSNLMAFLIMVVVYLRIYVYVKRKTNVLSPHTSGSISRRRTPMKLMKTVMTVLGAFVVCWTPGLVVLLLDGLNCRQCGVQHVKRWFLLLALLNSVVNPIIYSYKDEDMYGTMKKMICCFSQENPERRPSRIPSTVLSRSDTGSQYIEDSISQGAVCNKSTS
Protocol: as §1, §2, §3, §4

[3] = molecular target: LPA2 (Homo sapiens, UniProt Q9HBW0); assay: GTP[γ35S] binding, LPA2 transfected HEK293T cell membranes; assay type: biochemical; set-up: expressed in transfected cells; host or cells: HEK293T (transient, calcium phosphate); conditions: for EC50: agonist, GTP[γ35S] binding
Protocol: as §1, §2, §3, §4

[4] = test system: LPA receptors; assay: Whole cell assays of calcium mobilization or inhibition of cAMP accumulation (agonist activity); assay type: cell-based
Protocol: (§5) Assays for cAMP accumulation were conducted on populations of 5×10^5 cells stimulated with […] in the presence of the phosphodiesterase inhibitor isomethylbutylxanthine (IBMX) for 15 minutes at 30° C. cAMP was measured by automated radioimmunoassay.
A FLIPR™ (Molecular Devices, Inc.) was used to measure intracellular calcium in A431 and HEK293T cells. A431 cells were seeded (−50,000 cells/well) in 96-well clear bottom black microplates (Corning Costar Corp., Cambridge, Mass.) and left overnight in CO2 incubator at 37° C. HEK293T cells were treated likewise, but seeded onto poly D-lysine coated microplates (Becton Dickinson, Franklin Lakes, N.J.). A431 cells were dye-loaded with 4 μM Fluo-3 AM ester (Molecular Probes Inc., Eugene, Oreg.) in a loading buffer (1×HBSS buffer, pH 7.4, containing 20 mM HEPES, 0.1% BSA, and 2.5 mM probenecid) for 1 hour at 37° C. Cells were then washed four times with the loading buffer and exposed in the FLIPR™ to sets of compounds. HEK293T cells were loaded with 2 μM Fluo-4 AM ester (Molecular Probes Inc., Eugene, Oreg.) in the same loading buffer without probenecid for 30 minutes and washed four times before being exposed to compounds in the FLIPR™. […]
(§6) The same activity was determined with human LPA1 using a recombinant baculovirus-infected insect Sf9 cell membrane preparation.

[5] = test system: HEK293T cells (express LPA1 and LPA3, not LPA2); assay: Block of LPA-induced rises in free intracellular calcium in HEK293T cells (FLIPR); assay type: cell-based; conditions: specificity control
Excerpt: as §3

[6] = molecular target: T3, human LPA1 (Homo sapiens, UniProt Q92633); assay: GTP[γ35S] binding, recombinant baculovirus-infected insect Sf9 cell membrane preparation; assay type: biochemical; conditions: Sf9 membranes
T3 construct: expressed in transfected cells; host or cells: Sf9 insect cells, recombinant baculovirus
Protocol: as §6

[7] = test system: renal injury following ischemia-reperfusion (IR); assay: Renal ischemia-reperfusion model; assay type: in vivo, mouse; conditions: for Plasma creatinine: 24 hrs of reperfusion, n=4
Protocol: C57BL6 mice (20 gm, 8 wks of age) were used for all studies. The surgical protocol of renal IR has been previously described (Okusa et al., 1999. Am. J. Physiol. (Renal Physiol.) 277: F404-412; Okusa, et al., 2000 Am. J. Physiol. (Renal Physiol.) 279; F809-F818, and Okusa et al., 2001 Kidney Int. 59:2114-2125). For the injury protocol, bilateral flank incisions were made under anesthesia with a regimen that consists of ketamine (100 mg/kg, ip.), xylazine (10 mg/kg, ip.) and acepromazine (1 mg/kg, im.). Renal pedicles were exposed and cross-clamped for 27-32 min. Kidneys were examined for immediate reperfusion following clamp removal. Wounds were closed and mice were returned to cages. […] The mice were sacrificed and the kidneys harvested at 1, 4, 8, 24, 48 hrs, 5 and 7 days. […] Mice were sacrificed following 24 hrs of reperfusion and plasma was obtained for BUN and creatinine.

[8] = molecular target: T1, LPA1; assay: cAMP accumulation in RH7777 cells stably expressing LPA1; assay type: cell-based; set-up: expressed in transfected cells; conditions: RH7777 cells stably expressing LPA1
Protocol: as §5
Rat hepatoma RH7777 cell monolayers were transfected with the mLPA1 plasmid DNA using the calcium phosphate precipitate method and clonal populations expressing the neomycin phosphotransferase gene were selected by addition of geneticin (G418) to the culture media. The RH7777 cells were grown in monolayers at 37° C. in a 5% CO02/95% air atmosphere in growth media consisting of: 90% MEM, 10% fetal bovine serum, 2 mM glutamine and 1 mM sodium pyruvate.
wls-b8L and the other phosphonates were also tested also for activity in three whole cell assays. […] Finally, the activity of wls-b8L in activating a chloride conductance in Xenopus laevis ooctyes was measured.

T1 sequence (P61793 whole entry): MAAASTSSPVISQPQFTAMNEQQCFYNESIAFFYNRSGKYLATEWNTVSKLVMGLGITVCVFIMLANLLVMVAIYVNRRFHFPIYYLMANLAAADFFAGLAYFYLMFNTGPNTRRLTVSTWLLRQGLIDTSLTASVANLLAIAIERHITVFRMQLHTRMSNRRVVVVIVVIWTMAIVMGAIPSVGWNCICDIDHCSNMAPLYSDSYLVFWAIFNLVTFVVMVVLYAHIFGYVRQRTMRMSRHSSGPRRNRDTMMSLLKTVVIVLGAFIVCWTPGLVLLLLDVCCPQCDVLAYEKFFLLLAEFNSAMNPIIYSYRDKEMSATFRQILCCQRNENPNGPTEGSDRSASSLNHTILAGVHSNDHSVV
LPA2, sequence (Q9HBW0 whole entry): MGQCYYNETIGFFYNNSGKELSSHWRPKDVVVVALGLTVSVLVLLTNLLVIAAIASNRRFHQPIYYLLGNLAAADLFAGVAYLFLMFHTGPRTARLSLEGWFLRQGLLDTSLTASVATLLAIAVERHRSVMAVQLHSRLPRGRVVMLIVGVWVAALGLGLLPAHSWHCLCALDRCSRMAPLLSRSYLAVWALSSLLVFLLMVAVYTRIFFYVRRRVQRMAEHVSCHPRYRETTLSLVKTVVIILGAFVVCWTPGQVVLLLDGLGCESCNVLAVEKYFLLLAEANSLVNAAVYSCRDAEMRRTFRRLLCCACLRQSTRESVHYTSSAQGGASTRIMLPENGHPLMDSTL
T3 sequence (Q92633 whole entry): as the sequence (P61793 whole entry) above, with A4I, S8I, Q22P, Y40H, V61I, D193E, H194N, V269I, N331S, N335T counted along it

Emax [1] [%] | EC50 [1] [nM] | Emax [2] [%] | EC50 [2] [nM] | Emax [3] [%] | EC50 [3] [nM] | Compound | also measured
51 | 73.8 | 45.3 | 3810 | 85.8 | 799 | CCCCCCCC/C=C\CCCCCCCC(=O)N[C@@H](COP(=O)(O)O)C(C)C [VPC12098] | –
– | – | – | – | – | – | CCCCCCCC/C=C\CCCCCCCC(=O)N[C@@H](COP(=O)(O)O)Cc1ccc(OCc2ccc(CCCCC)cc2)cc1 [VPC31162] | Agonist activity/efficacy at LPA1 ([1]; compared to LPA): agonist; Agonist activity/efficacy at LPA3 ([2]; compared to LPA): agonist; Antagonism of LPA-induced GTP[γ35S] binding at LPA2 [3]: antagonist activity
14.8 | > 5000 | 27.7 | > 5000 | 27.6 | > 5000 | CCCCCCCC/C=C\CCCCCCCC(=O)N[C@H](COP(=O)(O)O)C(C)C [compound 40105] | –
9.4 | > 5000 | 3.8 | > 5000 | 36.4 | > 5000 | CCCCCCCC/C=C\CCCCCCCC(=O)N[C@@H](CN)COP(=O)(O)O [VPC12048] | –
98.7 | 4.9 | 103 | 684 | 103 | 50.3 | CCCCCCCC/C=C\CCCCCCCC(=O)N[C@H](CN)COP(=O)(O)O [VPC12178] | Potency at LPA1 relative to LPA [1]: more potent than 1-oleoyl LPA
66.8 | 35.8 | 83.5 | 1080 | 92.6 | 162 | CCCCCCCC/C=C\CCCCCCCC(=O)N[C@H](CC)COP(=O)(O)O [VPC12109] | –
66.2 | 18.5 | 84.4 | 1480 | 91.3 | 29.2 | CCCCCCCC/C=C\CCCCCCCC(=O)N[C@@H](COP(=O)(O)O)C(=O)OC [VPC31139] | –
161 | 7.9 | 107 | 322 | 105 | 116 | CCCCCCCC/C=C\CCCCCCCC(=O)N[C@H](CO)COP(=O)(O)O [VPC31143] | Potency at LPA1 relative to LPA [1]: more potent than 1-oleoyl LPA
– | > 5000 | – | > 5000 | – | > 5000 | CCCCCCCC/C=C\CCCCCCCC(=O)N[C@H](COP(=O)(O)O)Cc1ccccc1 [VPC12255] | –
– | – | – | 262 | – | 6.8 | 1-acyl, 2-hydroxyl-sn-glycerol-3-phosphate [LPA, reference compound] | LPA3 Emax ([2]; LPA = 100): 100
50.6 | 1210 | 3.8 | > 5000 | 60.2 | 3460 | CCCCCCCC/C=C\CCCCCCCC(=O)N[C@H](COP(=O)(O)O)C(=O)OC [VPC31180] | –
91.1 | > 5000 | – | 4350 | 77.3 | 2640 | CCCCCCCC/C=C\CCCCCCCC(=O)N[C@@H](CO)COP(=O)(O)O [VPC31144] | –
62.3 | 1580 | 89.3 | 4980 | 85.6 | 4280 | CCCCCCCC/C=C\CCCCCCCC(=O)N[C@@H](CC)COP(=O)(O)O [VPC12115] | –
48.1 | 2900 | 9.7 | > 5000 | 6.9 | > 5000 | CCCCCCCC/C=C\CCCCCCCC(=O)N[C@@H](C)COP(=O)(O)O [VPC12101] | –
108 | 3.4 | 93.4 | 113 | 95.2 | 18.3 | CCCCCCCC/C=C\CCCCCCCC(=O)N[C@H](C)COP(=O)(O)O [VPC12086] | Potency at LPA1 relative to LPA [1]: more potent than 1-oleoyl LPA; also recorded: more potent and efficacious than LPA
23.7 | 38.4 | 78.7 | 351 | 97 | 268 | CCCCCCCC/C=C\CCCCCCCC(=O)N[C@@H](COP(=O)(O)O)Cc1ccccc1 [VPC12084] | Agonist activity in whole cell assays [4]: appreciable agonist activity; Antagonism of LPA-induced GTP[γ35S] binding at LPA1 [1]: did block LPA activity
– | – | – | – | – | – | CCCCCCCC/C=C\CCCCCCCC(=O)N[C@H](COP(=O)(O)O)Cc1ccc(OCc2ccccc2)cc1 [VPC12249] | Antagonism of ATP-evoked calcium transients [5]: lack of antagonism; Antagonist activity at human LPA1 [6]: same activity; Agonist activity in whole cell assays [4]: completely devoid of agonist activity; Plasma creatinine ([7]; 0.01 mg/kg/2 hrs): 1.06±0.25; H and E sections, tissue preservation ([7]; 1 mg/kg/2 hr): marked degree of tissue preservation; Plasma creatinine ([7]; 1.0 mg/kg/2 hrs): 0.31±0.4; Block of LPA1-mediated inhibition of forskolin-induced cAMP increase [8]: inhibited; Antagonism of LPA-induced GTP[γ35S] binding at LPA3 [2]: surmountable antagonist; Ki ([2]; Schild regression, block of LPA-induced GTP[γ35S] binding): 428 nM and ~425 nM; Antagonism of LPA-induced GTP[γ35S] binding at LPA2 [3]: lack of antagonist activity
